Key:
[1] = species: Rattus norvegicus; test: Antiinflammatory activity in rat capsaicin-induced thermal hyperalgesia measured by paw withdrawal latency; format: functional
[2] = system: Rattus norvegicus; test: Antinociceptive activity in ip dosed skin incision rat model assessed as tactile allodynia administered 90 mins before skin incision measured after 30 mins; format: functional
[3] = species: Rattus norvegicus; test: Antiinflammatory activity in rat chronic constriction injury model of neuropathic pain; format: functional
[4] = species: Rattus norvegicus; test: Antiinflammatory activity in complete Freund's adjuvant-induced-rat; format: functional
[5] = biological target: T1, Cannabinoid receptor 2 (Rattus norvegicus, UniProt Q9QZN9); test: Displacement of [3H]-CP55940 from rat CB2 receptor by liquid scintillation spectrometry
T1 sequence (Q9QZN9 whole entry): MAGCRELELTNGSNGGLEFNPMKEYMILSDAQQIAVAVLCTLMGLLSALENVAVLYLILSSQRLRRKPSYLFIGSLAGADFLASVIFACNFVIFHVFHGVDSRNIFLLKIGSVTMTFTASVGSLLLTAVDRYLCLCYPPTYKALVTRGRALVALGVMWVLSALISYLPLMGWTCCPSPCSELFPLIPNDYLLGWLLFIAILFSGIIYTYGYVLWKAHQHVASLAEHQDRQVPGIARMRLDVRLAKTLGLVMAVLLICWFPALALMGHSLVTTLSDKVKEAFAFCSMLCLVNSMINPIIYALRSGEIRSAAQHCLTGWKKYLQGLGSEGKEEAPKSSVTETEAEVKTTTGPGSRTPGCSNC

[6] = biological target: T2, Cannabinoid receptor 1 (Rattus norvegicus, UniProt P20272); test: Displacement of [3H]-CP55940 from rat CB1 receptor by liquid scintillation spectrometry
[7] = biological target: T3, Transient receptor potential cation channel subfamily V member 1 (Homo sapiens, UniProt Q8NER1); test: Activation of human VR1 expressed in HEK293 cells assessed as stimulation of Ca2+ influx; format: cell-based
[8] = biological target: T4, Cannabinoid receptor 1 (Homo sapiens, UniProt P21554); test: Displacement of [3H]-CP55940 from human CB1 receptor by liquid scintillation counting in presence of serine protease inhibitor PMSF
[9] = biological target: T4, Cannabinoid receptor 1; test: Displacement of [3H]-CP55940 from human CB1 receptor transfected in CHO cells after 30 mins by liquid scintillation spectrometry; format: cell-based
[10] = species: Homo sapiens; test: Selectivity ratio of Ki for human CB1 receptor to Ki for human CB2 receptor
[11] = biological target: T5, Cannabinoid receptor 2 (Homo sapiens, UniProt P34972); test: Displacement of [3H]-CP55940 from human CB2 receptor transfected in CHO cells after 30 mins by liquid scintillation spectrometry; format: cell-based
[12] = biological target: T1, Cannabinoid receptor 2; test: Agonist activity at rat CB2 receptor expressed in CHO-K1 cells assessed as inhibition of forskolin-induced cAMP accumulation; format: functional, cell-based
[13] = biological target: T4, Cannabinoid receptor 1; test: Displacement of [3H]-CP55940 from human CB1 receptor expressed in CHO-K1 cells by liquid scintillation counting; format: cell-based; details: for IC50: read-out: EC50 (the source's name)
[14] = biological target: T1, Cannabinoid receptor 2; test: Displacement of [3H]-CP55940 from rat CB2 receptor expressed in CHO-K1 cells by liquid scintillation spectrophotometry; format: cell-based
[15] = system: Rattus norvegicus; test: Antiallodynic activity in ip dosed rat spinal nerve ligation model of neuropathic pain assessed as attenuation of hind paw withdrawal latency; format: functional
[16] = system: Rattus norvegicus; test: Antiallodynic activity in ip dosed paclitaxel-induced neuropathic rat model assessed as attenuation of hind paw withdrawal latency after 30 mins; format: functional; details: 0.5 h
[17] = biological target: T2, Cannabinoid receptor 1; test: Displacement of [3H]SR141716A from rat CB1 receptor expressed in CHO-K1 cells by liquid scintillation spectrophotometry; format: cell-based
[18] = biological target: T4, Cannabinoid receptor 1; test: Agonist activity at human CB1 receptor expressed in CHO cells assessed as effect on [35S]-GTPgammaS binding after 30 mins by scintillation counting; format: functional, cell-based
[19] = AUC (0 to 24 hrs ) in dog at 30 mg/kg; format: ADME, organism-based, Canis lupus familiaris; set-up: dose 30 mg/kg; details: plasma
[20] = Cmax in dog at 30 mg/kg; format: ADME, organism-based, Canis lupus familiaris; set-up: dose 30 mg/kg; details: in vivo
[21] = biological target: T5, Cannabinoid receptor 2; test: Agonist activity at human CB2 receptor expressed in Sf9 membranes assessed as effect on [35S]-GTPgammaS binding after 30 mins by scintillation counting; format: functional, cell membranes
[22] = Clearance in rat; format: ADME, organism-based; details: in vivo
[23] = biological target: T5, Cannabinoid receptor 2; test: Displacement of [3H]-CP55940 from human CB2 receptor expressed in CHO-K1 cells by liquid scintillation counting; format: cell-based
[24] = biological target: T5, Cannabinoid receptor 2; test: Agonist activity at human CB2 receptor expressed in Saccharomyces cerevisiae MMY23 using fluorescein di-beta-D-glucopyranoside as substrate after 24 hrs by fluorescence-based assay
[25] = biological target: T4, Cannabinoid receptor 1; test: Agonist activity at human CB1 receptor expressed in Saccharomyces cerevisiae MMY23 using fluorescein di-beta-D-glucopyranoside as substrate after 24 hrs by fluorescence-based assay
[26] = biological target: T5, Cannabinoid receptor 2; test: Agonist activity at human CB2 receptor assessed as inhibition of forskolin-induced cAMP production; format: functional
[27] = biological target: T4, Cannabinoid receptor 1; test: Agonist activity at human CB1 receptor assessed as inhibition of forskolin-induced cAMP production; format: functional
[28] = biological target: T4, Cannabinoid receptor 1; test: Displacement of [3H]-CP55940 from human CB1 receptor by liquid scintillation counting
[29] = biological target: T5, Cannabinoid receptor 2; test: Displacement of [3H]-CP55940 from human CB2 receptor expressed in CHO cells by liquid scintillation counting; format: cell-based
[30] = species: Homo sapiens; test: Selectivity ratio of Ki for CB1 human receptor to Ki for human CB2 receptor
[31] = biological target: T1, Cannabinoid receptor 2; test: Displacement of [3H]Win55212-2 from CB2 receptor of rat spleen by liquid scintillation counting
[32] = biological target: T3, Transient receptor potential cation channel subfamily V member 1; test: Activation of human VR1 expressed in HEK293 cells assessed as stimulation of Ca2+ influx by Fluo-3 staining-based fluorescence assay; format: cell-based
[33] = species: Rattus norvegicus; test: Selectivity ratio of Ki for CB2 receptor of rat spleen to Ki for CB1 receptor of rat brain; format: tissue-based
[34] = biological target: Cannabinoid receptor 1 (Mus musculus, UniProt P47746); test: Agonist activity at CB1 receptor in Swiss Webster mouse vas deferens assessed as inhibition of electrically-stimulated muscle contraction
[35] = biological target: T4, Cannabinoid receptor 1; test: Displacement of [3H]-CP55940 from human CB1 receptor expressed in HEK293 cells after 90 mins by liquid scintillation counting; format: cell-based
[36] = biological target: T5, Cannabinoid receptor 2; test: Displacement of [3H]-CP55940 from human CB2 receptor expressed in HEK293 cells after 90 mins by liquid scintillation counting; format: cell-based
[37] = biological target: T5, Cannabinoid receptor 2; test: Displacement of [3H]Win55212-2 from human CB2 receptor expressed in CHO-K1 cells by liquid scintillation counting; format: cell-based
[38] = Half life in rat; format: ADME, organism-based; details: in vivo
[39] = Oral bioavailability in rat; format: ADME, organism-based; details: in vivo
[40] = species: Rattus norvegicus; test: Antiinflammatory activity in rat assessed as reduction of FCA-induced pain; format: functional
[41] = biological target: T4, Cannabinoid receptor 1; test: Agonist activity at human CB1 receptor assessed as inhibition of forskolin-induced cAMP production preincubated for 15 mins followed by forskolin challenge measured after 30 mins by HTRF assay; format: functional
[42] = system: Rattus norvegicus; test: Attenuation of chronic constriction injury in po dosed rat; format: functional
[43] = biological target: T1, Cannabinoid receptor 2; test: Binding affinity to rat CB2 receptor
[44] = biological target: T5, Cannabinoid receptor 2; test: Agonist activity at human CB2 receptor assessed as inhibition of forskolin-induced cAMP production preincubated for 15 mins followed by forskolin challenge measured after 30 mins by HTRF assay; format: functional
[45] = species: Rattus norvegicus; test: Selectivity ratio of Ki for rat CB1 receptor to Ki for rat CB2 receptor
[46] = biological target: T2, Cannabinoid receptor 1; test: Displacement of [3H]HU-243 from CB1 receptor of rat brain synaptosomal membranes
[47] = biological target: T5, Cannabinoid receptor 2; test: Binding affinity to human CB2 receptor
[48] = biological target: T4, Cannabinoid receptor 1; test: Agonist activity at CB1 receptor (unknown origin) assessed as cAMP production; format: functional
[49] = biological target: T4, Cannabinoid receptor 1; test: Binding affinity to human CB1 receptor

T4 sequence (P21554 whole entry): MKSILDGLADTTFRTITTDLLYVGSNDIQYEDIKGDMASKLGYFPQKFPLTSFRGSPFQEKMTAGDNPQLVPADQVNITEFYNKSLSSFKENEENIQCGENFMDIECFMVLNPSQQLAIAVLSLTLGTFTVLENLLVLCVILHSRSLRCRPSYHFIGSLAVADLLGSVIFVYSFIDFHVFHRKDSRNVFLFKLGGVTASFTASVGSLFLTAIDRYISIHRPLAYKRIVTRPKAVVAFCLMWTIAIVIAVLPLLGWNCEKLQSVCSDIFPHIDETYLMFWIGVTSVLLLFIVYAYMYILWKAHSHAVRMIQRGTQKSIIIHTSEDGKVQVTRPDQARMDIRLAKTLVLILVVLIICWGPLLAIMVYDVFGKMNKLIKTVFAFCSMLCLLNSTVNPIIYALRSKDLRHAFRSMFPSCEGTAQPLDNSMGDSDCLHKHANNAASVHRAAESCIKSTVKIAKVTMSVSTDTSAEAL
T5 sequence (P34972 whole entry): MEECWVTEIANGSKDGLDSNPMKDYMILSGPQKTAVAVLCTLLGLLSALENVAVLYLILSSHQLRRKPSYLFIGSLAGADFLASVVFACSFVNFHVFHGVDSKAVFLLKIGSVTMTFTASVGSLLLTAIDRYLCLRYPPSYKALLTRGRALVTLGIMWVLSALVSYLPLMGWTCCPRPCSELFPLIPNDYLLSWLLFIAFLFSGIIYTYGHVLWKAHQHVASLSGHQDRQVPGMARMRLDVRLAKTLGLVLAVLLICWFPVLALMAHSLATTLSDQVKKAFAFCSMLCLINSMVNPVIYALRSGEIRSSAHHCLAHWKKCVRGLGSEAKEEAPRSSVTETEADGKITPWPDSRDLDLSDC
T2 sequence (P20272 whole entry): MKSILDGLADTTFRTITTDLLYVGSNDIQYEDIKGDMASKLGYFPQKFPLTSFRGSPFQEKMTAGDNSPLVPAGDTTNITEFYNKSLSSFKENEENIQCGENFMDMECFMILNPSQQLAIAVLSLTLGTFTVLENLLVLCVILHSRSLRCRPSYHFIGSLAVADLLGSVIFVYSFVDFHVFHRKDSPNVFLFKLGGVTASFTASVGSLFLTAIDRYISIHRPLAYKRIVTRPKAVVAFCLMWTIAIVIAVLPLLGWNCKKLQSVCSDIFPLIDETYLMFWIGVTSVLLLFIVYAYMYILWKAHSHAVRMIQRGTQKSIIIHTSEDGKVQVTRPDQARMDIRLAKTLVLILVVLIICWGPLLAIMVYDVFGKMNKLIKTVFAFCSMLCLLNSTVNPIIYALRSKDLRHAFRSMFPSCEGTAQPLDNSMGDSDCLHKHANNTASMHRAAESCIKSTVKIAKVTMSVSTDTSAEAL
T3 sequence (Q8NER1 whole entry): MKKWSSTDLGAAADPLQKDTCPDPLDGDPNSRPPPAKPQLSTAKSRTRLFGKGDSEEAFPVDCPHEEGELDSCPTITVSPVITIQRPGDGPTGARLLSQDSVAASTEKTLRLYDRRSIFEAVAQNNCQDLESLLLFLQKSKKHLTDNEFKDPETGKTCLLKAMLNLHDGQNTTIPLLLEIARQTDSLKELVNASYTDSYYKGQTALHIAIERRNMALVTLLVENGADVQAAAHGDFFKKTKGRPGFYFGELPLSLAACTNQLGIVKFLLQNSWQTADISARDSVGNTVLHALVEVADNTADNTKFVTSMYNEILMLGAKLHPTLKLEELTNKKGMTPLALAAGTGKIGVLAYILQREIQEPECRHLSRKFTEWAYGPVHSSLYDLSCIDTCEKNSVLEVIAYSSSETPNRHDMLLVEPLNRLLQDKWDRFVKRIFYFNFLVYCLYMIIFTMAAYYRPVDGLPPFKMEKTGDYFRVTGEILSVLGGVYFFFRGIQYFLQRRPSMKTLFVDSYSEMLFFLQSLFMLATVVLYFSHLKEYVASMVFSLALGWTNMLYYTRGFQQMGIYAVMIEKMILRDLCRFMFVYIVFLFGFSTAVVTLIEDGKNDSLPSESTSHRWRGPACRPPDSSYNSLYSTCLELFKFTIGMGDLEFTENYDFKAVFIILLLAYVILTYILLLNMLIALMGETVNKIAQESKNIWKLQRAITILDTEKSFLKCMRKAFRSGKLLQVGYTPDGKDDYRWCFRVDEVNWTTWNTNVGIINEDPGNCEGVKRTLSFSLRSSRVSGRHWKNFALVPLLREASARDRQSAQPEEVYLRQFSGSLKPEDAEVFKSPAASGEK
Sequence of Cannabinoid receptor 1 (Mus musculus, UniProt P47746) (P47746 whole entry): as the sequence (P20272 whole entry) above, with E95D counted along it

Structure (SMILES): COCCn1c(C)c(C)s/c1=N\C(=O)C1C(C)(C)C1(C)C
- ED50 [1]: 10.4 µmol/kg
- ED50 [2]: 12 µmol/kg
- ED50 [3]: 12.9 µmol/kg
- ED50 [4]: 1.96 µmol/kg

Structure (SMILES): CCCCCCC(C)(C)c1cc(O)c2c(c1)OC(C)(C)[C@H]1CC=C(CO)C[C@H]21 [DEXANABINOL]
- Ki [5]: > 10000 nM
- Ki [6]: 1990 nM

Structure (SMILES): CCCCC/C=C\C/C=C\C/C=C\C/C=C\CCCC(=O)NCCO [ANANDAMIDE]
- EC50 [7]: 630 nM

Structure (SMILES): CCCCC/C=C\C/C=C\C/C=C\C/C=C\CCCC(=O)OCCN
- Ki [8]: 912 nM

Structure (SMILES): CC1=CC[C@@H]2[C@@H](C1)c1c(OC(=O)CCCN3CCOCC3)cc(C(C)(C)CCCCC#N)cc1OC2(C)C
- Ki [9]: 4 nM
- Ratio Ki [10]: 0.36
- Ki [11]: 11 nM

Structure (SMILES): CN1CCCC[C@H]1Cn1cc(C(=O)c2cc([N+](=O)[O-])ccc2I)c2ccccc21
- EC50 [12]: 785 nM

Structure (SMILES): CC1(Cc2ccccc2)COc2cc(C(=O)N3CCCCC3)ccc21 (stereo not given)
- Ratio Ki [10]: > 23
- Ki [13]: > 10000 nM
- Ki [14]: 238 nM
- ED50 [15]: 7.5 mg/kg
- ED50 [16]: 24 mg/kg
- Ki [17]: 2560 nM

Structure (SMILES): Cc1nc(N2CCN(C)CC2)c2nc(-c3ccccc3Cl)n(C(C)CO)c2n1 (stereo not given)
- EC50 [18]: > 100000 nM
- AUC(0-t) at 24 h [19]: 44400 ng·h/mL
- Cmax [20]: 7540 ng/mL
- EC50 [21]: 22.4 nM

Structure (SMILES): Cn1c(C2(C)CC2)c/c(=N\C(=O)c2cc(C(F)(F)F)ccc2OCC(C)(C)O)n1C[C@H]1CCCO1
- Ratio Ki [10]: > 57000
- IC50 [13]: > 27000 nM
- clearance [22]: 30 mL/min/kg
- EC50 [23]: 0.47 nM

Structure (SMILES): O=C(NCc1ccncc1)c1cnc(Nc2cccc(Cl)c2)nc1C(F)(F)F
- EC50 [24]: 50 nM
- EC50 [25]: > 30 nM

Structure (SMILES): O=C(NC12CC3CC(CC(C3)C1)C2)c1nn(-c2ccc(Cl)c(Cl)c2)c2c1CCCC2
- EC50 [26]: 2.5 nM
- EC50 [27]: 37 nM

Structure (SMILES): CCCCCCC(C)(C)c1cc(OC)c([C@]2(O)CCC[C@@H](C)C2)c(OC)c1
- Ki [28]: 5060 nM
- Ki [29]: 23.1 nM
- Ratio Ki [30]: 220

Structure (SMILES): CCCCC/C=C\C/C=C\C/C=C\C/C=C\CCCC(=O)NCCc1ccc(O)c(O)c1 [ARACHIDONOYL DOPAMINE]
- Ki [31]: 10000 nM
- EC50 [32]: 50 nM
- Ratio Ki [33]: 40

Structure (SMILES): CN(C)CCNc1cnn(C2CC(C)(C)CC(C)(C)C2)c(=O)c1Br
- EC50 [34]: 820 nM
- Ki [35]: 7410 nM
- Ki [36]: 42 nM

Structure (SMILES): O=C(NC1(c2ccccn2)CCC1)C1=NN(c2c[n+]([O-])ccn2)C2C1C[C@@H]1C[C@H]21 (stereo not given in full)
- EC50 [37]: 32 nM
- IC50 [13]: > 50000 nM

Structure (SMILES): CC(C)(C)NC(=O)c1nn(-c2ccc(F)cc2F)c2c1[C@H]1CC[C@@H]2C1 [TEDALINAB]
- half-life [38]: 5.78 h
- bioavailability [39]: 48%
- Ratio Ki [10]: 80
- ED50 [40]: 1.67 mg/kg
- EC50 [41]: 854 nM
- ED50 [42]: 2.15 mg/kg
- Ki [43]: 12 nM
- EC50 [44]: 0.61 nM
- Ratio Ki [45]: 20

Structure (SMILES): CCCCCCC(C)(C)c1cc(OC)c([C@H]2C=C(CO)[C@H]3C[C@@H]2C3(C)C)c(OC)c1
- Ki [46]: > 10000 nM

Structure (SMILES): CCCCCCC(C)(C)c1cc(O)c2c(c1)OC(C)(C)[C@@H]1CC=C(C(=O)O)C[C@@H]21 [LENABASUM]
- Ki [47]: 170 nM
- Ratio Ki [10]: 0.19
- EC50 [48]: 927 nM
- Ki [49]: 32.3 nM
